Source: paper PMC4104761, “Identification of a novel lytic peptide for the treatment of solid tumours” (Genes & Cancer, 2014)

Legend:
[1] = test system: all cancer cell lines; assay: MTT viability assay, average of all cancer cell lines; assay type: cell-based; conditions: 20 µg Cypep-1/ml, 60 min exposure
Procedure: (§1) Cypep-1 was tested in various concentrations on a total of 17 cell lines, which included 13 human and 1 murine tumour cell line(s), as well as 3 normal human cell lines. Listed in detail: 4 human osteosarcoma (U2OS, SaOS2, HOS and MNNG-HOS), 6 human glioblastoma (A172, GaMg, LN18, U87, U373 and T98G) and 3 human mammary carcinoma cell lines (MCF7, AU565 and MDA-MB-468) as well as an additional murine mammary carcinoma cell line (4T1). Furthermore, 3 normal human cell lines were included: 2 normal human fibroblast cell lines (HFF1 and 142Br) as well as normal human osteoblasts (HOB).
(§2) MTT proliferation assays were performed on all cell lines (with the exception of 142Br (human skin fibroblasts)), using monolayers of 15 000 cells in sterile 96 well tissue culture plates (Nunc™, Roskilde, Denmark), respectively. All cells were incubated with Cypep-1 dissolved in 0.9% NaCl, at the following concentrations: 0.1, 0.5, 1.0, 5, 10, 15, 20, 25, 30 and 35µg of Cypep-1 per ml and assayed after 15, 30, 45, 60, 75, 90, 180, 270 and 360 min.

[2] = test system: BALB/c mice; assay: In vivo toxicity after tail vein injection; parameters: species or system mouse; conditions: 100 µl bolus per animal
Procedure: Cypep-1 was injected into the lateral tail vein of 37 BALB/c mice (average age 131,7 days; average weight 25.2 g). In detail, the group consisted of 18 male (average weight 26.5g) and 19 female animals (average weight 23.9g). The respective peptide concentrations administered were increased systematically from 50µg up to 800µg Cypep-1 per bolus per animal. All Cypep-1 doses were adjusted to a total injection volume of 100µl 0,9% NaCl, which remained constant for all animals. Throughout the experiment, a group of 4 animals (2 males/ 2 females) received the same Cypep-1 concentrations per bolus, respectively. All injections were performed very slowly in order to avoid cardiac stress. The mice were then observed for a period of 24h with regards to signs of distress and pain (e.g. orbital tightening, flattened ear position, formation of nose and/or cheek bulge, whisker change, overall activity level) as well as potential toxic effects. During the first 2 hours, the animals were monitored continuously and then checked again at 4 h, 6 h, 12 h and 24 h post injection.

[3] = test system: mammary carcinoma AU 565; assay: MTT viability assay; assay type: cell-based, human; conditions: 20 µg Cypep-1/ml, 60 min incubation, most sensitive cell line
Procedure: as §1, §2

[4] = test system: glioblastoma GaMg; assay: MTT viability assay; assay type: cell-based, human; conditions: 20 µg Cypep-1/ml, 60 min incubation, least sensitive cell line
Procedure: as §1, §2

YGRKKRRQRRRGKTLRVAKAIYKRYIE [Cypep-1]
surviving fraction, average of all cancer cell lines [1]: 18.6% | dose with first signs of toxicity (seizure-like catatonic stupor) ([2]; slow tail vein injection): 600 µg | dose with no signs of distress or pain ([2]; slow tail vein injection, 24 h observation): up to 500 µg | lethal dose ([2]; tail vein injection, death within 5 - 10 min): 800 µg | average surviving fraction [3]: 7% | average surviving fraction [4]: 33%
